Columns and labels:
Test in all cases: selective drug sensitivity score (sDSS, relative to normal bone marrow) (sDSS (score)); higher = more potent and effective on the cell line relative to normal bone marrow cells
Details in all cases: 72 h
380 = system: 380
697 = system: 697
ALL-SIL = system: ALL-SIL
CCRF-HSB2 = system: CCRF-HSB2
COG-LL-317 = system: COG-LL-317
COG-LL-319h = system: COG-LL-319h
COG-LL-355h = system: COG-LL-355h
COG-LL-402h = system: COG-LL-402h
DND-41 = system: DND-41
HPB-ALL = system: HPB-ALL
JURKAT = system: JURKAT
KARPAS-45 = system: KARPAS-45
KASUMI-2 = system: KASUMI-2
MHH-CALL-3 = system: MHH-CALL-3
MHH-CALL-4 = system: MHH-CALL-4
MN-60 = system: MN-60
MOLT-4 = system: MOLT-4
NALM-16 = system: NALM-16
SUP-B15 = system: SUP-B15
TANOUE = system: TANOUE
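Further: ALL cell lines in 384-well plates, five doses spanning 10,000-fold, each plate scaled between vehicle and 100 µmol/L benzalkonium chloride controls, sDSS an adapted area-under-curve metric.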

Row | SMILES | selective drug sensitivity score 380 | selective drug sensitivity score 697 | selective drug sensitivity score (ALL-SIL) | selective drug sensitivity score (CCRF-HSB2) | selective drug sensitivity score (COG-LL-317) | selective drug sensitivity score (COG-LL-319h) | selective drug sensitivity score (COG-LL-355h) | selective drug sensitivity score (COG-LL-402h) | selective drug sensitivity score (DND-41) | selective drug sensitivity score (HPB-ALL) | selective drug sensitivity score (JURKAT) | selective drug sensitivity score (KARPAS-45) | selective drug sensitivity score (KASUMI-2) | selective drug sensitivity score (MHH-CALL-3) | selective drug sensitivity score (MHH-CALL-4) | selective drug sensitivity score (MN-60) | selective drug sensitivity score (MOLT-4) | selective drug sensitivity score (NALM-16) | selective drug sensitivity score (SUP-B15) | selective drug sensitivity score (TANOUE)
1 | C[C@H]1O[C@@H](O[C@H]2[C@@H](O)C[C@H](O[C@H]3[C@@H](O)C[C@H](O[C@H]4CC[C@@]5(C)[C@H](CC[C@@H]6[C@@H]5C[C@@H](O)[C@]5(C)[C@@H](C7=CC(=O)OC7)CC[C@]65O)C4)O[C@@H]3C)O[C@@H]2C)C[C@H](O)[C@@H]1O [Digoxin] (top concentration 1000 nM) | 22.5 | 8.6 | 5.6 | 6.6 | 8.7 | 10.3 | 8.7 | 6.4 | 2.4 | 5.5 | 10 | 12.3 | 5.9 | 10.5 | 5.6 | 2.7 | 12.3 | 4.9 | 9.2 | -2.9
2 | O=C(Nc1ccc2[nH]nc(-c3ccncc3)c2c1)[C@@H]1CCN(CC(=O)N2CCN(c3ccc(-c4ncccn4)cc3)CC2)C1 (top concentration 10000 nM) | 1.66 | 0.66 | 0.16 | 3.26 | -2.04 | 2.16 | 6.26 | 1.76 | 4.46 | -0.44 | -2.04 | -0.84 | 6.16 | 7.16 | 3.96 | -3.64 | -3.04 | -4.24 | 12.6 | -4.64
3 | Nc1ccn([C@@H]2O[C@H](CO)[C@@H](O)C2(F)F)c(=O)n1 [Gemcitabine] (top concentration 1000 nM) | 23.5 | 21 | 12.1 | 22 | 20.4 | 20.5 | 7.16 | 18.6 | 9.26 | 0.96 | 9.16 | -7.44 | 15.1 | 13.4 | 12.9 | -0.34 | 10.4 | 8.06 | 17.1 | -7.34
4 | NC1(c2ccc(-c3nc4ccn5c(=O)[nH]nc5c4cc3-c3ccccc3)cc2)CCC1 [MK-2206] (top concentration 1000 nM) | 4.76 | 3.76 | 2.96 | 3.26 | 3.56 | 3.56 | 5.06 | 2.76 | -1.64 | 1.06 | -0.24 | 2.26 | 6.46 | 3.86 | 5.76 | -1.64 | 2.76 | 2.46 | -0.44 | -1.64
5 | CC(C)Nc1cc(-c2c[nH]c(C(=O)N[C@H](CO)c3cccc(Cl)c3)c2)c(Cl)cn1 [Ulixertinib] (top concentration 10000 nM) | -4.38 | 1.62 | 3.02 | 1.32 | -4.38 | -0.78 | 3.82 | -0.38 | 4.72 | -2.68 | -1.08 | -0.18 | 7.82 | -4.38 | 2.22 | -4.38 | 1.72 | 3.22 | 6.62 | -4.38
6 | COCCNCc1ccc(-c2cc3nccc(Oc4ccc(NC(=O)C5(C(=O)Nc6ccc(F)cc6)CC5)cc4F)c3s2)nc1 [Sitravatinib] (top concentration 2500 nM) | 2.18 | 1.58 | 15.9 | 9.28 | -0.42 | -0.32 | 2.58 | 1.78 | 0.98 | -0.42 | 0.38 | 3.78 | -0.42 | -0.42 | 5.48 | 0.78 | 0.78 | 2.78 | 8.68 | -0.42
7 | CC(C)(C)c1cc(NC(=O)Nc2ccc(Oc3ccnc4[nH]c(=O)cnc34)cc2F)n(-c2ccccc2)n1 (top concentration 25000 nM) | -4.68 | 4.72 | 16.1 | 3.12 | -2.18 | -1.08 | 1.92 | -1.78 | -0.78 | 1.12 | -1.48 | -1.48 | -1.38 | -3.58 | 0.42 | 0.42 | -2.98 | -2.78 | 10.6 | -5.68
8 | CN[C@@H]1C[C@H]2O[C@@](C)([C@@H]1OC)n1c3ccccc3c3c4c(c5c6ccccc6n2c5c31)C(=O)N[C@H]4O [UCN-01] (top concentration 10000 nM) | 13.5 | 12.9 | 3.14 | 9.34 | 11.8 | 6.64 | 4.34 | 8.94 | 7.44 | 6.04 | 0.34 | 6.74 | 2.84 | 6.24 | 8.14 | 0.94 | 3.74 | 0.74 | 2.64 | -9.56
9 | CC(C)Oc1ccc(-c2nn([C@@H](C)c3oc4ccc(F)cc4c(=O)c3-c3cccc(F)c3)c3ncnc(N)c23)cc1F [TGR-1202] (top concentration 2500 nM) | -2.56 | 0.44 | -0.36 | -2.06 | -2.56 | 1.64 | 5.14 | -1.96 | 2.74 | -2.56 | -2.56 | -2.36 | -2.36 | -2.56 | -0.06 | -2.56 | -2.56 | 2.24 | 1.14 | -2.56
10 | CO[C@H](C(=O)[C@@H](O)[C@@H](C)O)[C@@H]1Cc2cc3cc(O[C@H]4C[C@@H](O[C@H]5C[C@@H](O)[C@H](O)[C@@H](C)O5)[C@@H](O)[C@@H](C)O4)c(C)c(O)c3c(O)c2C(=O)[C@H]1O[C@H]1C[C@@H](O[C@H]2C[C@@H](O[C@H]3C[C@](C)(O)[C@H](O)[C@@H](C)O3)[C@H](O)[C@@H](C)O2)[C@H](O)[C@@H](C)O1 [Plicamycin] (top concentration 10000 nM) | 7.14 | -17.5 | -1.46 | -5.26 | -1.96 | 7.54 | -15.4 | 2.34 | 0.44 | 7.44 | -11.2 | -11.1 | -17.2 | 5.34 | -7.26 | 5.34 | -6.26 | 2.74 | -15.6 | -14.4
11 | COc1cc2c(cc1-c1c(C)noc1C)ncc1[nH]c(=O)n([C@H](C)c3ccccn3)c12 [I-BET151] (top concentration 10000 nM) | -7.44 | 9.36 | -2.14 | 0.06 | 6.56 | 10.7 | 1.86 | 5.46 | 0.86 | 1.36 | 0.36 | 9.16 | -2.94 | 14.3 | 5.96 | 6.76 | -4.34 | 2.06 | 5.96 | -2.84
12 | COc1ccc(COc2cc3oc(=O)c4cc(C(C)O)ccc4c3cc2OC)cc1 (stereo not given) [Palomid-529] (top concentration 10000 nM) | 5.86 | 0.06 | -0.24 | 1.46 | 0.06 | 17.2 | -0.24 | 0.26 | -0.24 | 0.76 | 5.16 | 2.76 | -0.24 | -0.24 | -0.24 | -0.24 | 2.26 | -0.24 | 5.26 | 0.36
13 | CC(=O)c1c(C)c2cnc(Nc3ccc(N4CCNCC4)cn3)nc2n(C2CCCC2)c1=O [Palbociclib] (top concentration 10000 nM) | -0.12 | 14.3 | -2.12 | 1.68 | 0.98 | 0.38 | 2.88 | 8.78 | 2.48 | 2.78 | 1.58 | 3.68 | 0.88 | 5.38 | -1.82 | -0.62 | 1.08 | 1.98 | 2.38 | -6.12
14 | CCN(CC)CCNC(=O)c1c(C)[nH]c(/C=C2\C(=O)Nc3ccc(-c4csc(-c5ccccc5)n4)cc32)c1C [Amcasertib] (top concentration 10000 nM) | 7.8 | 2.4 | 3.6 | 3.1 | 7.7 | -0.1 | 6.8 | -3.2 | 6.8 | 4.3 | -2.2 | 6.4 | 0.8 | -3.2 | 2.2 | -0.2 | -2.4 | -2.1 | 0.5 | -2.6
15 | CNc1ncc2cc(-c3cc(NC(=O)NCCC(C)(C)C)c(F)cc3C)c(C)nc2n1 (top concentration 10000 nM) | 7.76 | 10.5 | 20.7 | 20.2 | -0.24 | 12.1 | 9.16 | 6.76 | 8.06 | 2.46 | 2.56 | 5.26 | 0.36 | 8.66 | 8.96 | -0.94 | 6.26 | 1.76 | 16.1 | -2.84
16 | CCN(CC)CCNC(=O)c1c(C)[nH]c(/C=C2\C(=O)Nc3ccc(F)cc32)c1C [Sunitinib] (top concentration 1000 nM) | -1.44 | 1.16 | 0.76 | 1.36 | -1.44 | -1.34 | 5.66 | -1.44 | -1.44 | -1.44 | -1.44 | -0.64 | -1.44 | -1.44 | 2.06 | -1.44 | -0.94 | -1.04 | 6.86 | -1.44
17 | CC(=O)c1cc2c(o1)C(=O)c1ccccc1C2=O [Napabucasin] (top concentration 20000 nM) | -2.08 | -0.88 | 2.22 | 0.12 | -0.18 | -0.18 | -0.18 | -3.48 | -0.18 | -0.98 | 0.52 | 1.22 | -3.38 | -3.28 | 0.12 | -2.08 | -1.28 | -11.8 | 1.22 | -4.88
